Consider one compound from patent US20070292451A1, “Medical herb composition for promoting the growth of hair A mammal and the manufacturing method thereof” (Brion Research Institute of Taiwan, priority 2006, published 2007).

The structures appear in SMILES notation.

The test has as its system humans. Description: Oral administration of the medical herb composition to human volunteers with hair shedding. The class given is in vivo. The following applies: Example 14: person. An excerpt: The administered dose is based on body weight. For dogs and cats, the dose was 1-1.5 g/5 kg/day. […] because dogs and cats have higher metabolism rate than humans. […] The forehead hairline moved forward after one month, and generally the hair became thick. […] The efficacy of the composition is clearly identified by comparing the photo taken at the 37th day after the first administration of the composition (FIG. 8(b)) to that taken at 5th day (FIG. 8(a)). […] The test was performed on a volunteer, a person ([…]). […] They were diagnosed to suffer from Male Pattern Baldness. […] The efficacy of the composition is clearly identified by comparing the photo taken after the administration of the composition for 1 month (FIG. 9(b)) to that taken before the administration of the composition (FIG. 9(a)). […] In addition, after continuous administration of the composition for 1 month, their eyesight was 150 degree less than that before the administration of the composition.

`CC(C)(C)NC(=O)[C@H]1CC[C@H]2[C@@H]3CC[C@H]4NC(=O)C=C[C@]4(C)[C@H]3CC[C@]12C` [Finasteride]: the “effect on Male Pattern Baldness (earlier treatment of the subject)” value is reported as “the effect was poor”.
